Tests used:
[1] = Therapeutic index for inhibition of uninfected H9 cell growth to that of inhibition of HIV-1 replication in H9 lymphocyte cells; […]; type: cell-based; conditions: human
H9 [2] = assay: Concentration required to inhibit uninfected H9 cell growth; type: functional, cell-based; conditions: Homo sapiens
[3] = Therapeutic index for inhibition of uninfected H9 cell growth to that of inhibition of HIV-1 replication in H9 lymphocyte cells; Precipitated in the media; type: cell-based; conditions: human
H9 [4] = assay: Concentration required to inhibit HIV-1 replication in H9 lymphocyte cells; type: functional, cell-based; conditions: Homo sapiens
[5] = Therapeutic index for inhibition of uninfected H9 cell growth to that of inhibition of HIV-1 replication in H9 lymphocyte cells.; type: cell-based; conditions: human, H9 lymphocyte cells (uninfected and HIV-1 infected); read-out: TI
[6] = Therapeutic index for inhibition of uninfected H9 cell growth to that of inhibition of HIV-1 replication in H9 lymphocyte cells;Did not dissolve; type: cell-based; conditions: human

SMILES | TI [1] | IC50 (H9 [2]) [µM] | selectivity ratio [5] | also measured
Cc1cc(O)nc2cc(N)ccc12 | Not Active | 104 |  | 
Cc1cc(=O)n(C(=O)OC(C)(C)C)c2c3c(ccc12)OC(C)(C)C=C3 |  |  |  | TI [3]: Precipitated
Cc1c(O)nc2c3c(ccc2c1C)OC(C)(C)[C@H](OC(=O)C12CCC(C)(C(=O)O1)C2(C)C)[C@@H]3OC(=O)C12CCC(C)(C(=O)O1)C2(C)C (stereo partly specified) |  | 42 | 9100 | EC50 (H9 [4]): 0.0046 µM
CC1(C)Oc2ccc3ccc(=O)oc3c2[C@@H](OC(=O)C23CCC(C)(C(=O)O2)C3(C)C)[C@H]1OC(=O)C12CCC(C)(C(=O)O1)C2(C)C (stereo partly specified) |  |  | 137000 | 
Cc1cc(=O)n(C(=O)OC(C)(C)C)c2c3c(ccc12)OC(C)(C)[C@H](O)[C@@H]3O |  |  |  | TI [3]: Precipitated
Cc1cc(O)nc2c3c(ccc12)OC(C)(C)C=C3 |  |  |  | TI [6]: Did not dissolve
Cc1cc(O)nc2c3c(ccc12)OC(C)(C)[C@H](OC(=O)C12CCC(C)(C(=O)O1)C2(C)C)[C@@H]3OC(=O)C12CCC(C)(C(=O)O1)C2(C)C (stereo partly specified) |  | 28 | 119000 | EC50 (H9 [4]): 0.00024 µM
Cc1cc(O)nc2cc(O)ccc12 | Not Active | 125 |  | 
Cc1cc(=O)n(C(=O)OC(C)(C)C)c2c3c(ccc12)OC(C)(C)[C@H](OC(=O)C12CCC(C)(C(=O)O1)C2(C)C)[C@@H]3OC(=O)C12CCC(C)(C(=O)O1)C2(C)C (stereo partly specified) | Not Active | > 157 |  | 
